Data as given in ChEMBL document CHEMBL5537207, “Discovery and Characterization of Selective, First-in-Class Inhibitors of Citron Kinase” (J Med Chem, 2024).
Blank lines part the entries; values can stand above or below the compound they belong to.

Columns and labels:
[1] = target: T1, Citron Rho-interacting kinase (Homo sapiens, UniProt O14578); assay: Binding affinity to NanoLuc fused-CITK kinase domain (unknown origin) expressed in HEK293T cells assessed as dissociation constant NanoBRET Target Engagement Intracellular Kinase Assay; assay type: cell-based
[2] = target: T1, Citron Rho-interacting kinase; assay: Binding affinity to NanoLuc fused-CITK (unknown origin) expressed in HEK293T cells assessed as dissociation constant NanoBRET Target Engagement Intracellular Kinase Assay; assay type: cell-based
[3] = target: T1, Citron Rho-interacting kinase
[4] = Oral bioavailability in Sprague-Dawley rat at 10 mg/kg measured upto 24 hrs; assay type: ADME, organism-based; details: in vivo
[5] = tested on: Panel NCI-60 (60 carcinoma cell lines); assay: Antiproliferative activity against human Panel NCI-60 (60 carcinoma cell lines) assessed as cell viability incubated for 48 hrs by CellTiter-Glo cell viability assay; assay type: functional
COLO 205 = assay: Antiproliferative activity against human COLO 205 Panel cells assessed as cell viability incubated for 48 hrs by CellTiter-Glo cell viability assay; assay type: functional
[6] = AUC in Sprague-Dawley rat at 10 mg/kg, po measured upto 24 hrs; assay type: ADME, organism-based; details: in vivo
[7] = Volume of distribution at steady state in Sprague-Dawley rat at 1 mg/kg, iv measured upto 24 hrs; assay type: ADME, organism-based; details: in vivo, read-out: Vdss
[8] = Cmax in CD-1 disease model mouse brain at 30 mg/kg, po measured after 24 hrs; assay type: ADME, organism-based; details: CD-1, mouse
[9] = Half life in Sprague-Dawley rat at 1 mg/kg, iv measured upto 24 hrs; assay type: ADME, organism-based; details: in vivo
[10] = Plasma clearance in Sprague-Dawley rat at 1 mg/kg, iv measured upto 24 hrs; assay type: ADME, organism-based
CYP2D6 = CYP2D6 (Homo sapiens, UniProt P10635); assay: Inhibition of CYP2D6 (unknown origin) at 10 uM by LC/MS/MS analysis relative to control; assay type: ADME
[11] = AUC in Sprague-Dawley rat at 1 mg/kg, iv measured upto 24 hrs; assay type: ADME, organism-based; details: in vivo
[12] = Cmax in Sprague-Dawley rat at 10 mg/kg, po measured upto 24 hrs; assay type: ADME, organism-based; details: in vivo
CYP2C9 = CYP2C9 (Homo sapiens, UniProt P11712); assay: Inhibition of CYP2C9 (unknown origin) at 10 uM by LC/MS/MS analysis relative to control; assay type: ADME
[13] = Cmax in Sprague-Dawley rat at 1 mg/kg, iv measured upto 24 hrs; assay type: ADME, organism-based; details: in vivo
Hs-578T = assay: Antiproliferative activity against human Hs-578T cells assessed as cell viability incubated for 48 hrs by CellTiter-Glo cell viability assay; assay type: functional
CYP3A4 = CYP3A4 (Homo sapiens, UniProt P08684); assay: Inhibition of CYP3A4 (unknown origin) at 10 uM by LC/MS/MS analysis relative to control; assay type: ADME
786-0 = assay: Antiproliferative activity against human 786-0 Panel cells assessed as cell viability incubated for 48 hrs by CellTiter-Glo cell viability assay; assay type: functional
[14] = AUC in CD-1 disease model mouse brain at 30 mg/kg, po measured after 24 hrs; assay type: ADME, organism-based; details: CD-1, mouse
[15] = Unbound fraction in human plasma measured after 4.5 hrs by LC-MS/MS analysis; assay type: ADME, cell-free
[16] = AUC in CD-1 disease model mouse plasma at 30 mg/kg, po measured after 24 hrs; assay type: ADME, organism-based; details: CD-1, mouse
[17] = Cmax in CD-1 disease model mouse plasma at 30 mg/kg, po measured after 24 hrs; assay type: ADME, organism-based; details: CD-1, mouse
[18] = Half life in Sprague-Dawley rat at 10 mg/kg, po measured upto 24 hrs; assay type: ADME, organism-based; details: in vivo
[19] = Unbound fraction in rat plasma measured after 4.5 hrs by LC-MS/MS analysis; assay type: ADME, cell-free
[20] = Apparent permeability across apical to basolateral side in dog MDCK cells incubated for 1 hr by LCMS analysis; assay type: ADME, cell-based, Canis lupus familiaris
JVM-3 = assay: Antiproliferative activity against human JVM-3 cells assessed as cell viability by standard PRISM assay; assay type: functional, cell-based

T1 sequence (O14578 whole entry, the tested form may be a part): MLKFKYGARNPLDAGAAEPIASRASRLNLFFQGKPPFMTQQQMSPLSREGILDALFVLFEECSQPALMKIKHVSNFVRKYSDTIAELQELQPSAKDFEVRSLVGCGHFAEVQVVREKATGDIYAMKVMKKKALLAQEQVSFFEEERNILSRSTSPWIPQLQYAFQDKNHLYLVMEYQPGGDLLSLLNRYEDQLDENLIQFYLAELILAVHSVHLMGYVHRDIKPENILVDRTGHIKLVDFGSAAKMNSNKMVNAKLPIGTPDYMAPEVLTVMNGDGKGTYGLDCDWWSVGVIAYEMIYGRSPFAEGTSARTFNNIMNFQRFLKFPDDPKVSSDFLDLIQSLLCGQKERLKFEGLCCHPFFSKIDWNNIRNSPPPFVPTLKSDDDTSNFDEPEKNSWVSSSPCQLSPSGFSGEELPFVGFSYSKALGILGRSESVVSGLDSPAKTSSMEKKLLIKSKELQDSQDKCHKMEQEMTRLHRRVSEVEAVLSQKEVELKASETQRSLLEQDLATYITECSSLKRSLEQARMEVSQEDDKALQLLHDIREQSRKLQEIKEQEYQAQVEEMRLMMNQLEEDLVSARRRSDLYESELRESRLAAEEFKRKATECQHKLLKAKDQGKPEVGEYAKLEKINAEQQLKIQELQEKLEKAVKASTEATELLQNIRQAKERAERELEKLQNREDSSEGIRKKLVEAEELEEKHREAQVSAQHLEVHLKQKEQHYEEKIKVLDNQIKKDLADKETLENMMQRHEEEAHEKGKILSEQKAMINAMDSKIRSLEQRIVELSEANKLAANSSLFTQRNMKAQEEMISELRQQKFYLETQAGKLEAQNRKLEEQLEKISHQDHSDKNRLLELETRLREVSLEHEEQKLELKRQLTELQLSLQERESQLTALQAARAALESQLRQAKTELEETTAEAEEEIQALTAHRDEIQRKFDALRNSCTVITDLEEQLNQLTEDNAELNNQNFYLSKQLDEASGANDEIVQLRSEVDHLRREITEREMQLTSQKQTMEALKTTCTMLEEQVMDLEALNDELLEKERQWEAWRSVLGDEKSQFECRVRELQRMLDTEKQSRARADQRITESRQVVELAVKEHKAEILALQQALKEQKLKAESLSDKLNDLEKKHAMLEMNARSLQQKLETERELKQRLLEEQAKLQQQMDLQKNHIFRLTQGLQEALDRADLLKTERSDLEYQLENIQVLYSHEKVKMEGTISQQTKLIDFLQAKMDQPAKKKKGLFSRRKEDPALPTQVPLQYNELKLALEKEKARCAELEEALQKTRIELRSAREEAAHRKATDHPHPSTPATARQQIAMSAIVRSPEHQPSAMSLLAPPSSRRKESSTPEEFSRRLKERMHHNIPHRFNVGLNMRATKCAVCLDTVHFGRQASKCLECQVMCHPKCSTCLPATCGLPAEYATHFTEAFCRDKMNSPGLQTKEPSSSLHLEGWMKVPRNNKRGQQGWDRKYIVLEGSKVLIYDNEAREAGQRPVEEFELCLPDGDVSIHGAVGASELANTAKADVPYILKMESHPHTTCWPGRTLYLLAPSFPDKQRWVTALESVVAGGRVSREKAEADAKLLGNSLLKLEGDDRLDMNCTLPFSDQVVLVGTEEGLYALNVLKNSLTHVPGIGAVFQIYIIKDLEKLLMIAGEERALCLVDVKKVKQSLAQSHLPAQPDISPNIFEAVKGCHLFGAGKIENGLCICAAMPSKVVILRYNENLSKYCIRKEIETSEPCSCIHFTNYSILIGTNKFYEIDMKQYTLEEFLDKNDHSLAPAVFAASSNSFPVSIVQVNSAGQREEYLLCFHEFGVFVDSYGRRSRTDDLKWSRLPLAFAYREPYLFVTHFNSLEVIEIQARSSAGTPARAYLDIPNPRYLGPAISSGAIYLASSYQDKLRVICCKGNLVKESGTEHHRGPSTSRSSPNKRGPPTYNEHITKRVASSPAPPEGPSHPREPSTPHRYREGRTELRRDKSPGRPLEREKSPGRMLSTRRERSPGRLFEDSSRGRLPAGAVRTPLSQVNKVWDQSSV
Sequence of CYP3A4 (P08684 whole entry): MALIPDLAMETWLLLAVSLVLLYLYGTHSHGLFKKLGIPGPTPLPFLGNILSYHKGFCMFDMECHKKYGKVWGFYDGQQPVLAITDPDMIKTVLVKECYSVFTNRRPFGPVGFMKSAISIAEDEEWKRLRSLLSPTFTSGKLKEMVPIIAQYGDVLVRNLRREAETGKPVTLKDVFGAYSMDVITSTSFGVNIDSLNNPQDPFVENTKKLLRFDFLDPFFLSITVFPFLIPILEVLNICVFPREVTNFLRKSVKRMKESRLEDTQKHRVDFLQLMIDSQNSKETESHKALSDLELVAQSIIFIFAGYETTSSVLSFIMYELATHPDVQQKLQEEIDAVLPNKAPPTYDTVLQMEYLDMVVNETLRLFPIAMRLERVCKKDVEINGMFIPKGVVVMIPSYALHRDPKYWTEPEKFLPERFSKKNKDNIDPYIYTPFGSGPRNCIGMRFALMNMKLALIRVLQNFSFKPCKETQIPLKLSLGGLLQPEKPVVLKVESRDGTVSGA
Sequence of CYP2D6 (P10635 whole entry): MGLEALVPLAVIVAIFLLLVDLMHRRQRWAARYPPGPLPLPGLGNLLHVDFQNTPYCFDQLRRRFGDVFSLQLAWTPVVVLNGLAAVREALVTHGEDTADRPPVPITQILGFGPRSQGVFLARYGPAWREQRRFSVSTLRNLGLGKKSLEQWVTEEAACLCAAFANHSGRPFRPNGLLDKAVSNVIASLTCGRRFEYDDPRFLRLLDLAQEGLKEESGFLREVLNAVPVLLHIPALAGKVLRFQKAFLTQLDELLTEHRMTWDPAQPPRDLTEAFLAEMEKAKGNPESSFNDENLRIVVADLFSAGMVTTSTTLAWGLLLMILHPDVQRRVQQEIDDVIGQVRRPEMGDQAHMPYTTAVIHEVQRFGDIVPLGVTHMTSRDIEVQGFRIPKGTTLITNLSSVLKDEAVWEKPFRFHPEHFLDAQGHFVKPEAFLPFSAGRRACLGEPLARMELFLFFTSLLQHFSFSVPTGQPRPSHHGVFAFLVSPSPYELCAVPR
Sequence of CYP2C9 (P11712 whole entry): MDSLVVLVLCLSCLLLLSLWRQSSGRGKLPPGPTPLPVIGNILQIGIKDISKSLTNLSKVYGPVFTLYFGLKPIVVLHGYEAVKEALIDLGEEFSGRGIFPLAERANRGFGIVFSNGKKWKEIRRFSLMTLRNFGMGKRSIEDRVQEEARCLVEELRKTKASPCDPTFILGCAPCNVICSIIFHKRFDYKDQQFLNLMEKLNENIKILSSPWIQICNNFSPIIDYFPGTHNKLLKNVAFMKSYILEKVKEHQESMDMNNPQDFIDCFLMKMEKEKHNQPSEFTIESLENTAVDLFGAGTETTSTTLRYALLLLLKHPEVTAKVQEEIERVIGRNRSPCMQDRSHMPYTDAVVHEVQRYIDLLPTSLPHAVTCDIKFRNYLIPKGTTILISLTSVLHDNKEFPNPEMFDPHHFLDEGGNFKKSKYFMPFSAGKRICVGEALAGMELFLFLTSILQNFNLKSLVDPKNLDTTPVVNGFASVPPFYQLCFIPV

Kd [1]: Not Active
Kd [2]: Not Active
IC50 [3]: > 30 µM
Structure (SMILES): Cc1cc2c(-c3ccc(NC(=O)[C@H](N)CC(C)(C)C)cc3C)cncc2[nH]1

IC50 [3]: 0.5 µM
Structure (SMILES): CC(N)c1ccc(-c2ccnc3[nH]ccc23)cc1 (centres undefined)

F [4]: 72%
GI50 (COLO 205): < 2 µM
AUC [6]: 7.3 µM·h
Vd [7]: 0.91 L/kg
Cmax [8]: 1.02 µM
half-life [9]: 4.3 h
clearance [10]: 0.264 L/h/kg
inhibition at 10 µM (CYP2D6): 56.2%
AUC [11]: 10.2 µM·h
Cmax [12]: 12.3 µM
inhibition at 10 µM (CYP2C9): 6.7%
Cmax [13]: 5.8 µM
inhibition at 10 µM (CYP3A4): 28.3%
GI50 (786-0): < 2 µM
AUC at 24 h [14]: 7.71 µM·h
Fu [15]: 0.52%
AUC at 24 h [16]: 90.5 µM·h
Cmax [17]: 12.9 µM
half-life [18]: 4 h
Fu [19]: 0.26%
Papp A→B at 1 h [20]: 213 nm/s
Structure (SMILES): Cc1cc2c(-c3ccc(NC(=O)[C@H](N)CC(C)(C)C)cc3C)ccnc2[nH]1
GI50 [5]: 7 µM
GI50 (Hs-578T): < 2 µM

Structure (SMILES): CC(C)C[C@H](N)C(=O)Nc1ccc(-c2ccnc3[nH]ccc23)cc1
IC50 [3]: 0.042 µM

IC50 [3]: 0.41 µM
Structure (SMILES): CC(C)CC(CN)C(=O)Nc1ccc(-c2ccnc3[nH]ccc23)cc1 (centres undefined)

IC50 [3]: 0.25 µM
Structure (SMILES): CC(N)C(=O)Nc1ccc(-c2ccnc3[nH]ccc23)cc1 (centres undefined)

IC50 [3]: 0.016 µM
Structure (SMILES): Cc1cc2c(-c3ccc(NC(=O)[C@@H](N)[C@H](O)C(C)C)cc3C)ccnc2[nH]1

IC50 [3]: 0.0055 µM
Structure (SMILES): Cc1cc2c(-c3ccc(NC(=O)[C@H](N)[C@@H](O)C(C)C)cc3C)ccnc2[nH]1
IC50 (JVM-3): 4.4 µM

IC50 [3]: 0.15 µM
Structure (SMILES): C[C@@H](N)c1ccc(C(=O)Nc2ccnc3[nH]ccc23)cc1 [Y-39983]
